# Assay results: patent US11209437B2, “Fluorescent probe and preparation method and use thereof” (Fluorescence Diagnosis (shanghai) Biotech Company Ltd., priority 2016, dated 2021)
# Assays:
# [1] = system: CLIP protein tags; assay: Fluorescence activation of probe after incubation with corresponding protein tag (CLIP); format: biochemical; conditions: probe 5 μM, protein tag 10 μM, 37° C., 1 hr
# Experimental: Probes were mixed with corresponding protein tags to obtain mixed samples, in which the final probe concentration was 5 μM, and the final protein tag concentration was 10 μM. The mixed samples were incubated 37° C. for 1 hr, fluorescence spectrophotometer was used to detect the change in fluorescence intensity, and the results are shown in Table 1.
# From the quantum yield of probe bound to protein tag, after reacting with the protein tags, the probes of the Examples could be detected to have significant signal enhancement in corresponding excitation transmission channels, the fluorescence activation multiple reached several hundreds to a thousand or more, and the brightness was high, which illustrates that after the probes of the Examples are bound to the protein tags, fluorescence of the probes can be activated, and the probes have good fluorescent molecular switching properties. In contrast, though the fluorescence of the reference probes could also be activated, the quantum yield of activated fluorescence was very low, and the brightness was very poor. In particular, in view of comparison results between probe 98 and reference probe 99, probe 101 and reference probe 102, probe 103 and reference probe 104, probe 105 and reference probe 106, probe 107 and reference probe 108, probe 109 and reference probe 110, probe 111 and reference probe 112, probe 114 and reference probe 115, probe 117 and reference probe 118, probe 120 and reference probe 121 in Table 1, for the same fluorescent dye, when the ligand is connected to the electron donor part of the fluorescent dye, the fluorescence activation brightness of the probe is much higher than the reference probe in which ligand is connected to the electron acceptor part of the fluorescent dye.
# [2] = Fluorescence of free probe prior to binding to a protein tag; format: physicochemical
# [3] = Viscosity responsiveness: fluorescence emission spectra of probes in glycerol and methanol; format: physicochemical; conditions: for Emission wavelength: excited at maximum excitation wavelength of each probe; for Fluorescence ratio in glycerol to methanol: probe 1×10^−5 M
# How it was run: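 Each probe, from a 1×10^−2 M DMSO stock, was diluted to a final 1×10^−5 M in glycerol and in methanol. Fluorescence emission spectra were then recorded under identical conditions at each probe's maximum excitation wavelength.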
# [4] = molecular target: T1, SNAP protein tags (Homo sapiens, UniProt P16455, A127T/A154D/C150Q/C62A/E30R/G131K/G132T/G153L/K125A/K32I/L33F/M134L/N157G/Q115S/Q116H/R128A/R135S/S151G/S152D/S159E); assay: Fluorescence activation of probe after incubation with corresponding protein tag (SNAP); format: biochemical; conditions: probe 5 μM, protein tag 10 μM, 37° C., 1 hr
# T1 sequence (P16455 1-182 E30R/K32I/L33F/C62A/Q115S/Q116H/K125A/A127T/R128A/G131K/G132T/M134L/R135S/C150Q/S151G/S152D/G153L/A154D/N157G/S159E): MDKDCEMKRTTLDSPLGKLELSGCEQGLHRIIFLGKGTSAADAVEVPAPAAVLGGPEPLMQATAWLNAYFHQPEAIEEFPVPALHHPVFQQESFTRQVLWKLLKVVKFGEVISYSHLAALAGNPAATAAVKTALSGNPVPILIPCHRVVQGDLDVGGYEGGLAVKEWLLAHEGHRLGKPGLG
# How it was run: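 Probe (5 μM final) mixed with CLIP or SNAP protein tag (10 μM final) and incubated 1 hr at 37° C. Fluorescence intensity change measured by fluorescence spectrophotometer, with quantum yield of tag-bound probe determined.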
# [5] = system: HeLa cells with stable expression of protein tags; assay: Labeling of HeLa cells expressing protein tags vs HeLa-WT cells, confocal imaging; format: cell-based; conditions: probe 5 μM, 37° C., 2 hrs
# Experimental: HeLa cells with stable expression of protein tags and HeLa-WT cells (HeLa primitive cells, with no protein tag expressed) were implanted in a 14 mm glass-bottom 96-well cell culture plate and stabilized for 10 hrs. Probes 1, 15, 21, 30, 56, 60, 63, 88 were added to the media, respectively and diluted to 5 μMs. The cells were incubated in a carbon dioxide incubator at 37° C. for 2 hrs, and then a Leica TPS-8 confocal microscopy was used to image the fluorescent changes of the labeled cells. […] However, for HeLa cells with protein tags expressed shown by group A in FIG. 12, strong fluorescent signals could be detected, which are nearly 300 times stronger.
Quantum yield of free probe [2],Emission wavelength [3] [nm],Fluorescence ratio in glycerol to methanol [3],Fluorescence activation multiple [4],Quantum yield of probe bound to protein tag [4],SMILES,Fluorescence activation multiple [1],Quantum yield of probe bound to protein tag [1],Fluorescence signal in HeLa-WT cells (no protein tag expressed) [5],"Fluorescent signal in HeLa cells with protein tags expressed, relative to HeLa-WT [5] [times]"
<0.001,610,998,–,–,CN(CCOC(=O)NCc1ccc(COc2nccc(N)n2)cc1)c1cc2sc(/C=C(\C#N)c3nc4ccccc4s3)cc2s1 [probe 29],621,0.33,–,–
<0.001,570,1774,–,–,CN(CCOC(=O)NCc1ccc(COc2nccc(N)n2)cc1)c1ccc2cc(/C=C(\C#N)C(=O)OC(C)(C)C)sc2c1 [probe 34],857,0.48,–,–
<0.001,625,401,–,–,CN(CCOC(=O)NCc1ccc(COc2nccc(N)n2)cc1)c1ccc2nc(/C=C(\C#N)C(=O)OC(C)(C)C)sc2c1 [probe 53],579,0.18,–,–
<0.001,566,436,989,0.39,CN(CCOC(=O)NCc1ccc(COc2nc(N)nc3[nH]cnc23)cc1)c1ccc(C#C/C=C(\C#N)C(=O)OC(C)(C)C)cc1 [probe 56],–,–,no corresponding fluorescence signal was detected,~300
0.0015,620,531,486,0.73,CN(CCOC(=O)NCc1ccc(COc2nc(N)nc3[nH]cnc23)cc1)c1ccc2c(c1)sc1cc(/C=C(/C#N)C(=O)OC(C)(C)C)sc12 [probe 63],–,–,no corresponding fluorescence signal was detected,~300
0.001,640,268,–,–,COCCNC(=O)/C(C#N)=C/c1cc2cc3sc(N(C)CCOC(=O)NCc4ccc(COc5nccc(N)n5)cc4)cc3cc2s1 [probe 72],486,0.47,–,–
0.0011,655,218,–,–,CN(CCOC(=O)NCc1ccc(COc2nccc(N)n2)cc1)c1ccc(-c2ccc(/C=C(\C#N)C(=O)OC(C)(C)C)s2)s1 [probe 80],349,0.38,–,–
<0.001,681,241,–,–,CN(CCOC(=O)NCc1ccc(COc2nccc(N)n2)cc1)c1ccc(-c2ccc(/C=C(\C#N)c3nc4ccccc4s3)s2)s1 [probe 82],321,0.21,–,–
<0.001,645,431,–,–,CN(CCOC(=O)NCc1ccc(COc2nccc(N)n2)cc1)c1cc2c(s1)-c1sc(/C=C(/C#N)C(=O)OC(C)(C)C)cc1C2(C)C [probe 95],553,0.42,–,–
<0.001,675,125,–,–,CN(CCOC(=O)NCc1ccc(COc2nccc(N)n2)cc1)c1cc2c(s1)-c1sc(/C=C(/C#N)c3nc4ccccc4o3)cc1C2(C)C [probe 96],435,0.31,–,–
<0.001,700,261,–,–,CN(CCOC(=O)NCc1ccc(COc2nccc(N)n2)cc1)c1cc2c(s1)-c1sc(/C=C(/C#N)c3nc4ccccc4s3)cc1C2(C)C [probe 97],812,0.23,–,–

# Second part, the molecule before the results:
SMILES,Quantum yield of free probe [2],Emission wavelength [3] [nm],Fluorescence ratio in glycerol to methanol [3],Fluorescence activation multiple [4],Quantum yield of probe bound to protein tag [4],Fluorescence activation multiple [1],Quantum yield of probe bound to protein tag [1],Fluorescence signal in HeLa-WT cells (no protein tag expressed) [5],"Fluorescent signal in HeLa cells with protein tags expressed, relative to HeLa-WT [5] [times]"
CN(CCOC(=O)NCc1ccc(COc2nc(N)nc3[nH]cnc23)cc1)c1ccc2cc(/C=C(\C#N)C(=O)OC(C)(C)C)sc2c1 [probe 30],<0.001,570,1125,535,0.55,–,–,no corresponding fluorescence signal was detected,~300
CN(CCOC(=O)NCc1ccc(COc2nccc(N)n2)cc1)c1ccc2nc(/C=C(\C#N)C(=O)OC(C)(C)C)oc2c1 [probe 45],<0.001,603,752,–,–,958,0.29,–,–
CN(CCOC(=O)NCc1ccc(COc2nccc(N)n2)cc1)c1ccc(C#C/C=C(\C#N)C(=O)OC(C)(C)C)cc1 [probe 57],<0.001,566,762,–,–,1026,0.31,–,–
COCCNC(=O)/C(C#N)=C/c1ccc(-c2ccc(N(C)CCOC(=O)NCc3ccc(COc4nccc(N)n4)cc3)cc2)s1 [probe 69],<0.001,620,217,–,–,491,0.27,–,–
CN(CCOC(=O)NCc1ccc(COc2nccc(N)n2)cc1)c1ccc(-c2ccc(/C=C(\C#N)c3nc4ccccc4o3)s2)s1 [probe 81],<0.001,672,235,–,–,391,0.29,–,–
CC(C)(C)OC(=O)/C(C#N)=C/c1ccc2c(c1)SCCN2CCOC(=O)NCc1ccc(COc2nccc(N)n2)cc1 [probe 84],<0.001,515,121,–,–,431,0.16,–,–
CC1=CC(C)(C)N(CCOC(=O)NCc2ccc(COc3nccc(N)n3)cc2)c2ccc(/C=C(\C#N)C(=O)OC(C)(C)C)cc21 [probe 90],<0.001,575,109,–,–,541,0.28,–,–
CC1=CC(C)(C)N(CCOC(=O)NCc2ccc(COc3nccc(N)n3)cc2)c2ccc(/C=C(\C#N)c3nc4ccccc4s3)cc21 [probe 91],0.0013,612,163,–,–,192,0.24,–,–
